Measurements published in patent US8377884B2, “Variants of C-type natriuretic peptides” (Biomarin Pharmaceutical Inc., priority 2007, dated 2013).
Entries after “also recorded” stand apart in the source; their conditions may differ. Where two headings read alike, the source gives them in different places. Bridge positions count the residues as written; N and C are the ends. Square brackets hold non-standard residues; d marks the D form. Peptide text beside a SMILES is read from it. Tle = CC(C)(C)[C@H](N)C(=O)O

Columns and labels:
NPR-B = molecular target: T1, NPR-B (Mus musculus, UniProt Q6VVW5); assay: Stimulation of cGMP production in NIH3T3 cells; assay type: cell-based, Murine; details: for cGMP response relative to 1 uM CNP22 (%) at 0.01 µM: read-out: cGMP Response rel. to 1 uM CNP22, 10 nM; for cGMP response relative to 1 uM CNP22 (%) at 1 µM: read-out: cGMP Response rel. to 1 uM CNP22, 1 uM
T1 construct: Murine NIH3T3 cells express endogenously the CNP signaling receptor, NPR-B; endogenous in cells; host or cells: NIH3T3 (murine fibroblasts)
T1 sequence (Q6VVW5 17-1047): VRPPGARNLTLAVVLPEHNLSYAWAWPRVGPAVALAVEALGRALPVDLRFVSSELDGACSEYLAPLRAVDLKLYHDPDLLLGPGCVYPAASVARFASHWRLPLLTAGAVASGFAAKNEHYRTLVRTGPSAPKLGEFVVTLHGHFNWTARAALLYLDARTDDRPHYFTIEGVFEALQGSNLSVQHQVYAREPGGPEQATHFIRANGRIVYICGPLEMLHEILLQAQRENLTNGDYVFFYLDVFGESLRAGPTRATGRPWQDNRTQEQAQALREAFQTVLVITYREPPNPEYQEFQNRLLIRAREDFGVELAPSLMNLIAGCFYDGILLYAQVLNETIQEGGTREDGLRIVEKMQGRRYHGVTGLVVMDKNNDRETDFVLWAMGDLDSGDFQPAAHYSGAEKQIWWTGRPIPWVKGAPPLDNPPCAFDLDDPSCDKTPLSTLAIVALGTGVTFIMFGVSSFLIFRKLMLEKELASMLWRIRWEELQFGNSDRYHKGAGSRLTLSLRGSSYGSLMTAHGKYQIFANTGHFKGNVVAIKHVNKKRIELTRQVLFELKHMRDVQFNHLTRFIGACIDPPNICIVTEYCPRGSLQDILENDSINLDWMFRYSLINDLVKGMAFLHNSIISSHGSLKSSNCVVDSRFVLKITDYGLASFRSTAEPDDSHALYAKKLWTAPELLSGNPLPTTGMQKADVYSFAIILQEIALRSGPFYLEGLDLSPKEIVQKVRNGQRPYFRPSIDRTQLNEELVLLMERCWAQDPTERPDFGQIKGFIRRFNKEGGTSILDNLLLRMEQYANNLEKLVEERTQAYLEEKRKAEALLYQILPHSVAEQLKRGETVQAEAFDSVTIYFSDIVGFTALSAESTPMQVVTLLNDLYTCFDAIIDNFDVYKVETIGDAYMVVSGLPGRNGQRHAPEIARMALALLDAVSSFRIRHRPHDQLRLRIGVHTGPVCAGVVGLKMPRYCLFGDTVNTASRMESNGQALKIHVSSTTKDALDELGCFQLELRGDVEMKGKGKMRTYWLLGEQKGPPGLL

Recombinant human NEP = Recombinant human NEP (Homo sapiens, UniProt P08473); assay: In vitro neutral endopeptidase (NEP) cleavage assay
Recombinant human NEP, sequence (P08473 whole entry): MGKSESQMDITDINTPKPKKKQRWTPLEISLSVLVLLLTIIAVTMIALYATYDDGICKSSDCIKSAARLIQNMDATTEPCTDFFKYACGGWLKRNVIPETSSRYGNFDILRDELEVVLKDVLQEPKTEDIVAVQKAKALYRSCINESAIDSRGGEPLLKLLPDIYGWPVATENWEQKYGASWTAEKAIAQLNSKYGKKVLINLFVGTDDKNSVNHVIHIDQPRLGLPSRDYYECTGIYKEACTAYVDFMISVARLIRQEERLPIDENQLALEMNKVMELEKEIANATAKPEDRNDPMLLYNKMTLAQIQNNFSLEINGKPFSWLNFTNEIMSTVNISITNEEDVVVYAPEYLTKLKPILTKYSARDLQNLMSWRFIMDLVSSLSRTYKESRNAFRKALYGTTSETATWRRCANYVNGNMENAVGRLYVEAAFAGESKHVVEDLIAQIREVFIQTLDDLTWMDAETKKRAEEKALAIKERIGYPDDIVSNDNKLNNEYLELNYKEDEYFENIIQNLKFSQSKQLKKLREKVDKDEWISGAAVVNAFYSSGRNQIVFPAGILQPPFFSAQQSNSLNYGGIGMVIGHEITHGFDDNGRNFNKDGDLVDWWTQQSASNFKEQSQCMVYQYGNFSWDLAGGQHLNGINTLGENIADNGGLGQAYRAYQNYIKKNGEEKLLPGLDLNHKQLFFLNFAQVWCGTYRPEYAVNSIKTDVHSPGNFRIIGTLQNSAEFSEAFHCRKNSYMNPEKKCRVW
In short: (§1)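 Recombinant human NEP (1 ug/mL final) incubated with 100 uM CNP variant in 0.1 M Tris, pH 7, at 37° C for various times, then quenched with EDTA (10 mM final) and heat. Samples reduced and analysed by HPLC and mass spectrometry. Half-life derived from loss of intact variant over time.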

[1] = molecular target: neutral endopeptidase (NEP) (Homo sapiens, UniProt P08473); assay: as above; details: human, pH 7
neutral endopeptidase (NEP), sequence (P08473 whole entry): as above
In short: as §1

[2] = in vitro NEP cleavage assay, assay period 160 minutes
[3] = NIH3T3 cells, 10 nM natriuretic peptide, normalized to cell number and cGMP production with 1 uM wtCNP22
[4] = NIH3T3 cells, 1 uM natriuretic peptide, normalized to cell number and cGMP production with 1 uM wtCNP22

| SMILES | cGMP response relative to 1 uM CNP22 (%) at 0.01 µM (NPR-B; NIH3T3, […]) [%] | cGMP response relative to 1 uM CNP22 (%) at 1 µM (NPR-B; NIH3T3, […]) [%] | resistance to NEP cleavage/degradation (in words) (Recombinant human NEP; [2]) | half-life at 100 uM [1] [min] | cGMP response relative to 1 uM CNP22 (%) at 0.01 µM (NPR-B; [3]) [%] | cGMP response relative to 1 uM CNP22 (%) at 1 µM (NPR-B; [4]) [%] | resistance to cleavage at the Cys6-Phe7 bond relative to wtCNP22 (Recombinant human NEP) | half-life at 100 uM ([1]; recombinant human neutral endopeptidase (NEP)) [min] | half-life in comparison to wtCNP22 (Recombinant human NEP; NEP at 1 ug/ml) | resistance to cleavage at the Cys6-Phe7 bond relative to wtCNP22 (Recombinant human NEP; data not shown) | resistance to cleavage of the Gly8-Leu9 bond (Recombinant human NEP; in the presence of 1 ug/mL NEP, data not shown) | resistance to NEP cleavage/degradation (in words) (Recombinant human NEP) |
| --- | --- | --- | --- | --- | --- | --- | --- | --- | --- | --- | --- | --- |
| CC[C@H](C)[C@@H]1NC(=O)[C@H](CCCNC(=N)N)NC(=O)[C@H](CC(=O)O)NC(=O)[C@H](CC(C)C)N(C)C(=O)[C@H](CCCCN)NC(=O)[C@H](CC(C)C)N(C)C(=O)CNC(=O)[C@H](Cc2ccccc2)NC(=O)[C@@H](NC(=O)CNC(=O)[C@H](CCCCN)NC(=O)[C@H](CO)NC(=O)[C@H](CC(C)C)NC(=O)CN)CSSC[C@@H](C(=O)O)NC(=O)CNC(=O)[C@H](CC(C)C)NC(=O)CNC(=O)[C@H](CO)NC(=O)[C@H](CCSC)NC(=O)[C@H](CO)NC(=O)CNC1=O [M] | 1 | 11 | greatest resistance to NEP cleavage | > 160 |  |  |  |  |  |  |  |  |
| CC[C@@H](C)[C@H]1NC(=O)[C@@H](CCCNC(=N)N)NC(=O)[C@@H](CC(=O)O)NC(=O)[C@@H](CC(C)C)NC(=O)[C@@H](CCCCN)NC(=O)[C@@H](CC(C)C)NC(=O)CNC(=O)[C@@H](Cc2ccccc2)NC(=O)[C@H](NC(=O)CNC(=O)[C@@H](CCCCN)NC(=O)[C@@H](CO)NC(=O)[C@@H](CC(C)C)NC(=O)CN)CSSC[C@H](C(=O)O)NC(=O)CNC(=O)[C@@H](CC(C)C)NC(=O)CNC(=O)[C@@H](CO)NC(=O)[C@@H](CCSC)NC(=O)[C@@H](CO)NC(=O)CNC1=O [N] | 2 | 1 | greatest resistance to NEP cleavage | > 160 |  |  |  |  |  |  |  |  |
| CC[C@H](C)[C@@H]1NC(=O)[C@H](CCCNC(=N)N)NC(=O)[C@H](CC(=O)O)NC(=O)[C@H](CC(C)C)NC(=O)[C@H](CCCCN)NC(=O)[C@H](CC(C)C)NC(=O)[C@H](C(C)(C)C)NC(=O)[C@H](Cc2ccccc2)NC(=O)[C@@H](NC(=O)CNC(=O)[C@H](CCCCN)NC(=O)[C@H](CO)NC(=O)[C@H](CC(C)C)NC(=O)CN)CSSC[C@@H](C(=O)O)NC(=O)CNC(=O)[C@H](CC(C)C)NC(=O)CNC(=O)[C@H](CO)NC(=O)[C@H](CCSC)NC(=O)[C@H](CO)NC(=O)CNC1=O [F] (H-GLSKGCF[Tle]LKLDRIGSMSGLGC-OH; disulfide 6-22 (inferred); N-terminus and C-terminus assumed) |  |  |  |  | 2 | 18 | resistance or improved resistance | 80 |  |  |  |  |
| CC[C@H](C)[C@@H]1NC(=O)[C@H](CCCNC(=N)N)NC(=O)[C@H](CC(=O)O)NC(=O)[C@H](CC(C)C)NC(=O)[C@H](CCCCN)NC(=O)[C@H](CC(C)C)NC(=O)CNC(=O)[C@H](Cc2ccccc2)NC(=O)[C@@H](NC(=O)CNC(=O)[C@H](CCCNC(=N)N)NC(=O)[C@H](CO)NC(=O)[C@H](CC(C)C)NC(=O)CN)CSSC[C@@H](C(=O)O)NC(=O)CNC(=O)[C@H](CC(C)C)NC(=O)CNC(=O)[C@H](CO)NC(=O)[C@H](CCSC)NC(=O)[C@H](CO)NC(=O)[C@H](CC(N)=O)NC1=O [BJ] (H-GLSRGCFGLKLDRINSMSGLGC-OH; disulfide 6-22 (inferred); N-terminus and C-terminus assumed) | 4 | 41 | greatest resistance to NEP cleavage | 150 |  |  |  |  |  |  |  |  |
| CC[C@H](C)[C@@H]1NC(=O)[C@H](CCCNC(=N)N)NC(=O)[C@H](CC(=O)O)NC(=O)[C@H](CC(C)C)NC(=O)[C@H](CCCCN)NC(=O)[C@H](CC(C)C)NC(=O)CNC(=O)[C@H](Cc2ccccc2)NC(=O)[C@@H](NC(=O)CNC(=O)[C@H](CCCCN)NC(=O)[C@H](CO)NC(=O)[C@H](CC(C)C)NC(=O)CNC(=O)[C@H](CO)NC(=O)[C@@H]2CCCN2C(=O)[C@@H]2CCCN2C(=O)[C@H](CC(C)C)NC(=O)[C@@H](NC(=O)[C@H](Cc2ccc(O)cc2)NC(=O)[C@@H](NC(=O)[C@H](CCC(N)=O)NC(=O)[C@@H]2CCCN2C(=O)[C@H](CCC(=O)O)NC(=O)[C@H](CCCNC(=N)N)NC(=O)[C@@H]2CCCN2C(=O)[C@H](CCC(N)=O)NC(=O)CN)C(C)C)[C@@H](C)O)CSSC[C@@H](C(=O)O)NC(=O)CNC(=O)[C@H](CC(C)C)NC(=O)CNC(=O)[C@H](CO)NC(=O)[C@H](CCSC)NC(=O)[C@H](CO)NC(=O)CNC1=O [CF] (H-GQPREPQVYTLPPSGLSKGCFGLKLDRIGSMSGLGC-OH; disulfide 20-36 (inferred); N-terminus and C-terminus assumed) | 23 ± 9 | 72 ± 19 | most resistant to NEP degradation; also recorded: much more resistant to NEP cleavage than CNP22 | > 160 |  |  |  |  |  |  |  |  |
| CC[C@H](C)[C@@H]1NC(=O)[C@H](CCCNC(=N)N)NC(=O)[C@H](CC(=O)O)NC(=O)[C@H](CC(C)C)NC(=O)[C@H](CCCCN)NC(=O)[C@H](CC(C)C)NC(=O)CNC(=O)[C@H](Cc2cccc(Cl)c2)NC(=O)[C@@H](NC(=O)CNC(=O)[C@H](CCCCN)NC(=O)[C@H](CO)NC(=O)[C@H](CC(C)C)NC(=O)CN)CSSC[C@@H](C(=O)O)NC(=O)CNC(=O)[C@H](CC(C)C)NC(=O)CNC(=O)[C@H](CO)NC(=O)[C@H](CCSC)NC(=O)[C@H](CO)NC(=O)CNC1=O [G] | 17 | 93 |  | 135 |  |  |  |  | about 1.5 times | resistance or improved resistance | exhibited resistance |  |
| CC[C@H](C)[C@@H]1NC(=O)[C@H](CCCNC(=N)N)NC(=O)[C@H](CC(=O)O)NC(=O)[C@H](CC(C)C)N(C)C(=O)[C@H](CCCCN)NC(=O)[C@H](CC(C)C)N(C)C(=O)CNC(=O)[C@H](Cc2ccccc2)NC(=O)[C@@H](NC(=O)CNC(=O)[C@H](CCCCN)NC(=O)[C@H](CO)NC(=O)[C@H](CC(C)C)NC(=O)CN)CSSC[C@@H](C(=O)O)NC(=O)CNC(=O)[C@H](CC(C)C)N(C)C(=O)CNC(=O)[C@H](CO)NC(=O)[C@H](CCSC)NC(=O)[C@H](CO)NC(=O)CNC1=O [L] | 18 | 10 | significantly shorter half-life | 30 |  |  |  |  |  |  |  |  |
| CC[C@H](C)[C@@H]1NC(=O)[C@H](CCCNC(=N)N)NC(=O)[C@H](CC(=O)O)NC(=O)[C@H](CC(C)C)NC(=O)[C@H](CCCCN)NC(=O)[C@H](CC(C)C)NC(=O)CNC(=O)[C@H](Cc2ccccc2)NC(=O)[C@@H](NC(=O)CNC(=O)[C@H](CCCNC(=N)N)NC(=O)[C@H](CO)NC(=O)[C@H](CC(C)C)NC(=O)CNC(=O)[C@H](CCC(N)=O)NC(=O)[C@H](CCC(N)=O)NC(=O)[C@H](CC(N)=O)NC(=O)[C@H](C)NC(=O)CNC(=O)[C@@H](NC(=O)[C@H](CO)NC(=O)[C@@H](NC(=O)[C@H](CO)NC(=O)[C@@H](NC(=O)[C@H](CCC(N)=O)NC(=O)[C@@H]2CCCN2C(=O)[C@@H](NC(=O)CN)C(C)C)C(C)C)[C@@H](C)O)[C@@H](C)O)CSSC[C@@H](C(=O)O)NC(=O)CNC(=O)[C@H](CC(C)C)NC(=O)CNC(=O)[C@H](CO)NC(=O)[C@H](CCSC)NC(=O)[C@H](CO)NC(=O)CNC1=O [CL] (H-GVPQVSTSTGANQQGLSRGCFGLKLDRIGSMSGLGC-OH; disulfide 20-36 (inferred); N-terminus and C-terminus assumed) |  |  |  | > 160 | 3 | 35 |  |  |  |  |  | most resistant to NEP degradation |
